Source: article PMC11456916, “A screen for cell envelope stress uncovers an inhibitor of prolipoprotein diacylglyceryl transferase, Lgt, in Escherichiacoli” (iScience, 2024)

Tested on: 356 CRISPRi constructs in E. coli ΔtolC-pore
Assay: CRISPRi collection fitness screen with sub-inhibitory compound
Format: cell-based
Settings: sub-inhibitory (¼ MIC) concentration, LB agar, basal knockdown
Summary of the method: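 Mobile CRISPRi collection conjugated into the ΔtolC-pore strain and pinned on agar at 1536 density in technical quadruplicate with a sub-inhibitory MAC-0452936 concentration. No CRISPRi induction; only basal 5–10% knockdown.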

SMILES: COc1ccc(C(=O)O/N=C(\c2cccs2)C(C)(C)C)cc1 [MAC-0452936, (Z)-2-Pivaloylthiophene O-(4-methoxybenzoyl) oxime]
- growth defect of the lgt CRISPRi mutant in the presence of compound: considerable growth defect
